Like-named read-outs stand apart in the source and are kept apart here.
Experiments:
[1] = target: radiolabelled octapeptide repeat *acetyl[…]amide (SEQ ID NO:2) (Homo sapiens, UniProt P04156); conditions: for % unbound [14C]: pH 7.4
[2] = target: radiolabelled octapeptide repeat peptide *acetyl…amide
[3] = target: radiolabelled octapeptide repeat peptide *acetyl…amide; remark: listed apart in the source

Question: How did the “% unbound [14C]” value [1] turn out when YVFNWY [Peptide 87] was run?
Answer: Its value is 45%.

Question: With SFPYYY [Peptide 92] as the molecule, how does the “% unbound [14C]” value [1] read?
Answer: The value was 90%.

Question: For LWWLFV [Peptide 111], which “% unbound [14C]” value [1] is on record?
Answer: The value was 85%.

Question: Which “% unbound [14C]” value [1] does the source give for WLYWIP [Peptide 85] here?
Answer: Its value is 90%.

Question: FYVFTA [90/98] was tested. Which “% unbound [14C]” value [1] did it give?
Answer: Its value is 82%.

Question: With IQIWIF [Peptide 110] as the molecule, how does the “% unbound [14C]” value [1] read?
Answer: Its value is 85%.

Question: Which “% unbound [14C]” value [1] does the source give for WLVWIA [Peptide 116] here?
Answer: Its value is 85%.

Question: PFHPG [Peptide 100] was tested. Which “% unbound [14C]” value [1] did it give?
Answer: Its value is 88%.

Question: Which “% unbound [14C]” value [1] does the source give for HKEQGA [Peptide 119] here?
Answer: The value was 91%.

Question: For “peptide 110, IQIWIF, on Toyopearl resin, free amino terminal”, which % unbound [14C] [2] is on record?
Answer: Its % unbound [14C] is 85%.

Question: For QLGHQW [Peptide 97], which “% unbound [14C]” value [1] is on record?
Answer: Its value is 85%.

Question: With YWFIYI [Peptide 117] as the molecule, how does the “% unbound [14C]” value [1] read?
Answer: Its value is 83%.

Question: How did the % unbound [14C] [2] turn out when “peptide 101, WIPPYN, on Toyopearl resin, free amino terminal” was run?
Answer: The % unbound [14C] was 84%.

Question: How did the “% unbound [14C]” value [1] turn out when IFFWIK [Peptide 112] was run?
Answer: The value was 77%.

Question: TGIPII [Peptide 118] was tested. Which “% unbound [14C]” value [1] did it give?
Answer: The value was 88%.

Question: WFPHFF [Peptide 102] was tested. Which “% unbound [14C]” value [1] did it give?
Answer: Its value is 64%.

Question: WIPPYN [Peptide 101] was tested. Which “% unbound [14C]” value [1] did it give?
Answer: The value was 84%.

Question: GFFFWW [Peptide 89] was tested. Which “binding of octapeptide to resin (in words)” value [1] did it give?
Answer: The value was “highest affinity binder”.

Question: And the “% unbound [14C]” value [1]?
Answer: The value was 23%.

Question: SNYGPY [Peptide 99] was tested. Which “% unbound [14C]” value [1] did it give?
Answer: Its value is 79%.

Question: Which “% unbound [14C]” value [1] does the source give for LLIWIP [Peptide 84] here?
Answer: Its value is 89%.

Question: With YFIWWE [Peptide 91] as the molecule, how does the “% unbound [14C]” value [1] read?
Answer: Its value is 58%.

Question: How did the “% unbound [14C]” value [1] turn out when LRVIIS [Peptide 96] was run?
Answer: The value was 90%.

Question: “peptide 111, LWWLFV, on Toyopearl resin, free amino terminal” was tested. Which % unbound [14C] [2] did it give?
Answer: Its % unbound [14C] is 85%.

Question: Which “% unbound [14C]” value [1] does the source give for LEIRLA [Peptide 93] here?
Answer: Its value is 96%.

Question: How did the “% unbound [14C]” value [1] turn out when SLEEYV [Peptide 95] was run?
Answer: The value was 89%.

Question: For LLLVIA [Peptide 94], which “% unbound [14C]” value [1] is on record?
Answer: The value was 83%.

Question: With QWWFII [Peptide 114] as the molecule, how does the “% unbound [14C]” value [1] read?
Answer: The value was 87%.

Question: For RWIISL [Peptide 113], which “% unbound [14C]” value [1] is on record?
Answer: Its value is 89%.

Question: How did the % unbound [14C] [2] turn out when “peptide 97, QLGHQW, on Toyopearl resin, free amino terminal” was run?
Answer: Its % unbound [14C] is 85%.

Question: Which “% unbound [14C]” value [1] does the source give for LAWFWR [Peptide 88] here?
Answer: Its value is 90%.

Question: With “peptide 116, WLVWIA, on Toyopearl resin, free amino terminal” as the molecule, how does the % unbound [14C] [2] read?
Answer: Its % unbound [14C] is 85%.

Question: For WEFYWF [Peptide 86], which “% unbound [14C]” value [1] is on record?
Answer: Its value is 76%.

Question: VFEYIK [Peptide 115] was tested. Which “% unbound [14C]” value [1] did it give?
Answer: The value was 87%.

Question: For FYVFTA (modifications not checked) [peptide 90/98, FYVFTA, on Toyopearl resin, free amino terminal], which % unbound [14C] [3] is on record?
Answer: Its % unbound [14C] is 82%.

Question: Which % unbound [14C] [3] does the source give for WLYWIP (modifications not checked) [peptide 85, WLYWIP, on Toyopearl resin, free amino terminal] here?
Answer: Its % unbound [14C] is 90%.

Question: GFFFWW (modifications not checked) [peptide 89, GFFFWW, on Toyopearl resin, free amino terminal] was tested. Which % unbound [14C] [3] did it give?
Answer: The % unbound [14C] was 23%.

Question: Which % unbound [14C] [3] does the source give for YWFIYI (modifications not checked) [peptide 117, YWFIYI, on Toyopearl resin, free amino terminal] here?
Answer: Its % unbound [14C] is 83%.

Question: Which % unbound [14C] [3] does the source give for HKEQGA (modifications not checked) [peptide 119, HKEQGA, on Toyopearl resin, free amino terminal] here?
Answer: The % unbound [14C] was 91%.

Question: For SLEEYV (modifications not checked) [peptide 95, SLEEYV, on Toyopearl resin, free amino terminal], which % unbound [14C] [3] is on record?
Answer: Its % unbound [14C] is 89%.

Question: Which % unbound [14C] [3] does the source give for RWIISL (modifications not checked) [peptide 113, RWIISL, on Toyopearl resin, free amino terminal] here?
Answer: Its % unbound [14C] is 89%.

Question: LLIWIP (modifications not checked) [peptide 84, LLIWIP, on Toyopearl resin, free amino terminal] was tested. Which % unbound [14C] [3] did it give?
Answer: Its % unbound [14C] is 89%.

Question: Which % unbound [14C] [3] does the source give for PFHPG (modifications not checked) [peptide 100, PFHPG, on Toyopearl resin, free amino terminal] here?
Answer: Its % unbound [14C] is 88%.

Question: For YFIWWE (modifications not checked) [peptide 91, YFIWWE, on Toyopearl resin, free amino terminal], which % unbound [14C] [3] is on record?
Answer: Its % unbound [14C] is 58%.

Question: For QWWFII (modifications not checked) [peptide 114, QWWFII, on Toyopearl resin, free amino terminal], which % unbound [14C] [3] is on record?
Answer: The % unbound [14C] was 87%.

Question: LRVIIS (modifications not checked) [peptide 96, LRVIIS, on Toyopearl resin, free amino terminal] was tested. Which % unbound [14C] [3] did it give?
Answer: The % unbound [14C] was 90%.

Question: Which % unbound [14C] [3] does the source give for WFPHFF (modifications not checked) [peptide 102, WFPHFF, on Toyopearl resin, free amino terminal] here?
Answer: The % unbound [14C] was 64%.

Question: With LAWFWR (modifications not checked) [peptide 88, LAWFWR, on Toyopearl resin, free amino terminal] as the molecule, how does the % unbound [14C] [3] read?
Answer: The % unbound [14C] was 90%.

Question: With TGIPII (modifications not checked) [peptide 118, TGIPII, on Toyopearl resin, free amino terminal] as the molecule, how does the % unbound [14C] [3] read?
Answer: Its % unbound [14C] is 88%.

Question: For IFFWIK (modifications not checked) [peptide 112, IFFWIK, on Toyopearl resin, free amino terminal], which % unbound [14C] [3] is on record?
Answer: The % unbound [14C] was 77%.

Question: With SFPYYY (modifications not checked) [peptide 92, SFPYYY, on Toyopearl resin, free amino terminal] as the molecule, how does the % unbound [14C] [3] read?
Answer: Its % unbound [14C] is 90%.

Question: For LLLVIA (modifications not checked) [peptide 94, LLLVIA, on Toyopearl resin, free amino terminal], which % unbound [14C] [3] is on record?
Answer: The % unbound [14C] was 83%.

Question: VFEYIK (modifications not checked) [peptide 115, VFEYIK, on Toyopearl resin, free amino terminal] was tested. Which % unbound [14C] [3] did it give?
Answer: Its % unbound [14C] is 87%.

Question: Which % unbound [14C] [3] does the source give for WEFYWF (modifications not checked) [peptide 86, WEFYWF, on Toyopearl resin, free amino terminal] here?
Answer: The % unbound [14C] was 76%.

Question: Which % unbound [14C] [3] does the source give for SNYGPY (modifications not checked) [peptide 99, SNYGPY, on Toyopearl resin, free amino terminal] here?
Answer: The % unbound [14C] was 79%.

Question: YVFNWY (modifications not checked) [peptide 87, YVFNWY, on Toyopearl resin, free amino terminal] was tested. Which % unbound [14C] [3] did it give?
Answer: The % unbound [14C] was 45%.

Question: Which % unbound [14C] [3] does the source give for LEIRLA (modifications not checked) [peptide 93, LEIRLA, on Toyopearl resin, free amino terminal] here?
Answer: The % unbound [14C] was 96%.

— US20040186273A1 (V.I. Technologies, Inc., priority 2000, published 2004)
